How the values were obtained:
Type in all cases: cell-based
[1] = target: T1, M3 receptor (Cavia porcellus, UniProt H0W1Z3); test: Functional tissue assay, M3 guinea-pig ileum (antagonist pA2); details: guinea-pig ileum, isometric contraction; antagonist pA2 per method; mean ± spread (n pts)
T1 construct: Sections (2 cm) are cut from the ileum of the killed guinea-pigs; from tissue; host or cells: guinea-pig ileum
Description: (§1) Functional Assays of M1, M2 and M3 Receptor Activity
(§2) Initial evaluation of test compounds is by assay of functional tissue responses. This has the advantage that it readily discriminates between agonist partial agonist and antagonist activity
(§3) Sections (2 cm) are cut from the ileum of the killed guinea-pigs, 10 cm from the ileo-caecal junction. One end is attached to a tissue holder/aerator and the other end via a cotton thread to an isometric transducer. The tissue is immersed in gassed normal Ca^2+ Krebs solution at 32±0.5° C. A resting tension of 0.5 g is applied and isometric contractions measured by computer or polygraph.
(§4) Following at least 30 min equilibration to allow twitches or tension to stabilize, cumulative concentration-response curves for the muscarinic agonists are constructed. The concentration is increased in half logarithmic increments after the contraction in the presence of each concentration has plateaued Steady-state contractions at each concentration are measured and the inhibition expressed as a percentage of the baseline twitch height in atria and vas deferens or as the maxi contraction in the ileum. EC50 values for the muscarinic agonists are determined from individual curves as the molar concentration required for 50% inhibition of twitch height or the 50% of maximum contraction (ileum). Geometric mean EC50 values and their 95% confidence limits are calculated.
(§5) A concentration-response curve to the test agonist is established in the absence of antagonist and after achieving the maximum effect, the agonist washed from the bath to restore twitch contractions. Three further concentration-response curves are then obtained in the same manner at approximately 30 min intervals, with the antagonist (Standards—pirenzepine M1, darifenacin M3, methoctramine M2) being introduced to the bath 15 min before each of these subsequent curves.
(§6) Concentration-response curves in the absence and presence of antagonist are measured as described for the agonist studies. The shifts in the concentration-response curves in the presence of antagonist compared with the absence of antagonist are expressed as the dose-ratios (DR) of the EC50 values. pA2 values are then determined from Schild analysis of plots of the mean corrected […] against log molar concentration of antagonist. The slopes of the Schild plots are determined by linear regression and the pA2 values determined from the intercept on the concentration axis (when log(DR−1) is zero). pA2 values are also determined from individual concentrations of antagonist by applying the equations: pA2=log(DR−1) log[B], wherein B is the molar concentration of antagonist.

[2] = tested on: M3 receptor; test: as above; details: ileum versus atria, log10 units
Description: as §1, §2, §3, §4, §5, §6

[3] = target: T2, M2 receptor (Cavia porcellus, UniProt H0VRN8); test: Functional tissue assay, M2 guinea-pig atria (antagonist pA2); details: guinea-pig left atria, paced; antagonist pA2 per method; mean ± spread (n pts)
T2 construct: from tissue; host or cells: guinea-pig left atrium
T2 sequence (H0VRN8 1-466): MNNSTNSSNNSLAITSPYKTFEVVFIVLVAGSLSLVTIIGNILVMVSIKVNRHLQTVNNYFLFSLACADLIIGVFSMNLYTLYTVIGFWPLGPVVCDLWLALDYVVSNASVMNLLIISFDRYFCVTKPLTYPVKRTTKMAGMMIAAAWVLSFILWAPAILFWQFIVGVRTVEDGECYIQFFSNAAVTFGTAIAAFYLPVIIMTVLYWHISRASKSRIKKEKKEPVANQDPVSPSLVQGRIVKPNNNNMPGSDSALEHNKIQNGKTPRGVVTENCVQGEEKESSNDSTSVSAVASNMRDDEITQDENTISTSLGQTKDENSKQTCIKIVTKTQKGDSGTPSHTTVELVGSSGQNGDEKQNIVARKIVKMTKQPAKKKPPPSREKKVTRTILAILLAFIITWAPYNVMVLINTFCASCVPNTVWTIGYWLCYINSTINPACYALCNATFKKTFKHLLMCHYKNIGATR
Description: as §1, §2
Guinea-pigs are killed by a blow to the back of the head and left atrium removed. The atrium is secured to a pari of stainless steel electrodes by means of a cotton thread and immersed in the organ bath containing gassed Krebs solution with normal Ca^2 + at 32±0.50C. Atria are placed at 2 Hz with square-wave pulses of 0.5 ms pulse width. Isometric contractions are recorded by computer or polygraph.
as §4, with “EC50 values for the muscarinic agonists are determined from individual curves as the molar concentration required for 50% inhibition of twitch height or the 50% of maximum contraction (ileum). Geometric mean EC50 values and their 95% confidence limits are calculated.” left out
Concentration-response curves in the absence and presence of antagonist are measured as described for the agonist studies. […]

T1 sequence (H0W1Z3 1-590): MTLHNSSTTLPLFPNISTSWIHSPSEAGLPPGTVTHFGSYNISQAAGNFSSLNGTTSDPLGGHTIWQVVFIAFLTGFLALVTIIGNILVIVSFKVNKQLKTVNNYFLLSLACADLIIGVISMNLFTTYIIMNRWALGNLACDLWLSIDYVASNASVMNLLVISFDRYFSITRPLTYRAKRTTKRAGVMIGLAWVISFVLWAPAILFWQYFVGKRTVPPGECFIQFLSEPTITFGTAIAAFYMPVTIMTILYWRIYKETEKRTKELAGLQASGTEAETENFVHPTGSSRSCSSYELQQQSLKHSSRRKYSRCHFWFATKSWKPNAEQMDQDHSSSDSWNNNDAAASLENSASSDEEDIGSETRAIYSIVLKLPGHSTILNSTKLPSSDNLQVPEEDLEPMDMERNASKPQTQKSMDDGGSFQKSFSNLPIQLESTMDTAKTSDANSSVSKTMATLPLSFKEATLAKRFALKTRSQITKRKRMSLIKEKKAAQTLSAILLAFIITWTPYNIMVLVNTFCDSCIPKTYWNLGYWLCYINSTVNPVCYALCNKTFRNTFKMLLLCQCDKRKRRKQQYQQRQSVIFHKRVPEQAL

M3 (ileum) [1] | Compound | Log10 selectivity [2] | M2 antagonist pA2 (atria) [3]
6.5 ± 0.4 (3 pts) | O=C1CN(CCNCc2ccccc2)Cc2ccccc2[C@]1(O)C1CCC1 (stereo in doubt) [Compound 19, 2-[2-(benzylamino)ethyl]-5-cyclobutyl-5-hydroxy-1,3,4,5-tetrahydrobenzo[c]azepin-4-one] | 1.6 ± 0.7 | 4.9 ± 0.6 (4 pts)
6.7 ± 0.4 (4 pts) | O=C1CN(CCCNCc2ccccc2)Cc2ccccc2[C@]1(O)C1CCC1 (stereo in doubt) [Compound 22, 2-[3-(Benzylamino)propyl]-5-cyclobutyl-5-hydroxy-1,2,3,5-tetrahydrobenzo[c]azepin-4-one] | 1.5 ± 0.5 | 5.2 ± 0.3 (4 pts)

Reference: patent US20030199494A1, “1,2,3,5-tetrahydrobenzo'c!azepin-4-one derivatives having muscarinic antagonist activity” (priority 2000, published 2003)
